What was measured:
recombinant thrombin = recombinant thrombin (Homo sapiens, UniProt P00734); assay: Chromogenic kinetic enzyme assay of thrombin (S2238); type: biochemical; conditions: Table 2; chromogenic assay; read-out: Thrombin* (IC50 nM)
Protocol: Using GraphPad Prism (GraphPad Software, San Diego, CA), a four-parameter curve fit was used to determine the inhibitor IC50s from a plot of the mean reaction velocity versus the inhibitor concentration. The IC50 values represent the average of three or more separate experimental determinations. Apparent Ki values were calculated from the IC50 values using the Cheng and Prusoff equation (Ki=IC50/(1+[S]/Km).
Using GraphPad Prism version 6.04 software program, (GraphPad Software, San Diego, CA, graphpad.com), a four parameter curve fit was used to determine the inhibitor IC50s from a plot of the mean reaction velocity versus the inhibitor concentration.
Fluorescent inhibitor and chromogenic proteolytic assays were performed for compounds prepared in Example 11 in general accordance with the procedures described in Example 9.

KLK5 = target: T1, KLK5 (Homo sapiens, UniProt Q9Y337); assay: Fluorescent kinetic enzyme inhibitor assay of KLK5 (Boc-VPR-AMC); type: biochemical; conditions: Table 4; 7.5 nM KLK5, 100 μM substrate
T1 construct: purchased R&D Systems 1108-SE-010
T1 sequence (Q9Y337 23-293): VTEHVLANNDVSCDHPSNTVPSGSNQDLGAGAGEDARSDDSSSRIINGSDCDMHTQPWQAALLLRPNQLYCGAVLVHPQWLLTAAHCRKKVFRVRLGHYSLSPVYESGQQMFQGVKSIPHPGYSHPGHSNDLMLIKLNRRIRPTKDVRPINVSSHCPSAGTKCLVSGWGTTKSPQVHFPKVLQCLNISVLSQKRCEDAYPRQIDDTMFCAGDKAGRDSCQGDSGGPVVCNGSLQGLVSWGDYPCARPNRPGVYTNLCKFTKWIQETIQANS
Protocol: Fluorescent Kinetic Enzyme Inhibitor Assay of KLK5: Inhibitors (11-pt serial dilutions, 0-20 μM final concentration in reaction) were serially diluted in DMSO (2% DMSO final concentration) and then mixed with KLK5 (#1108-SE-010, R&D Systems, Minneapolis, Minnesota) in black 384 well plates (Corning #3575. Corning, NY). The final assay concentration for KLK5 is 7.5 nM in TNC buffer (25 mM Tris, 150 mM NaCl, 5 mM CaCl2), 0.01% Triton X-100, pH 8). After thirty minutes incubation at room temperature, Boc-VPR-AMC substrate was added. The final substrate concentrations for assay is 100 μM. Changes in fluorescence (excitation at 380 nm and emission at 460 nm) were measured at room temperature over time in a Biotek Synergy 2 plate reader (Winnoski, VT). Using GraphPad Prism version 6.04 software program, (GraphPad Software, San Diego, CA, graphpad.com), a four parameter curve fit was used to determine the inhibitor IC50s from a plot of the mean reaction velocity versus the inhibitor concentration. The IC50 values represent the average of three or more separate experimental determinations.

How did the IC50 (recombinant thrombin) turn out when CC(=O)N[C@H]1CC(=O)NCCCC[C@@H](C(=O)N[C@@H](CCCNC(=N)N)C(=O)c2nc3ccccc3s2)NC(=O)[C@H](Cc2ccccc2)NC1=O [VD3112, (3S,6S,14S)-6-acetamido-N—((S)-1-(benzo[d]thiazol-2-yl)-5-guanidino-1-oxopentan-2-yl)-3-benzyl-2,5,8-trioxo-1,4,9-triazacyclotetradecane-14-carboxamide] was run?
Its IC50 is 1090 nM.

What about the IC50 (KLK5) of the same compound?
The IC50 was 2530 nM.

— patent publication US12590123B2, “Compounds and methods for treating cancer, viral infections, and allergic conditions” (Washington University, priority 2019, dated 2026)
